From patent publication US8071716B2, “Thymus-specific protein” (Immune System Key Ltd., priority 2004, dated 2011)
Where no end group is shown, it is not given here.

Assays:
[1] = Solubility in aqueous solution; type: physicochemical
[2] = tested on: human peripheral blood lymphocytes (PBL); experiment: BrdU incorporation proliferation assay in human PBL; type: cell-based; details: for proliferation stimulating activity, in words: conclusions from Table 1
Experimental: The T101 peptide was tested for its ability to activate proliferation of mouse spleenocytes or thymocytes (two mouse strains were used: CD1 and Balb/C), as well as human peripheral blood lymphocytes (PBL). The proliferation activity was measured by 5-bromo 2′-deoxy-uridine (BrdU) incorporation into these cells.
Human PBL were isolated on a Ficole gradient from blood taken from volunteers and then plated in 96-well plates, again using RPMI 1640+10% FCS+Pen/Str.
The cells were treated with different concentrations of the peptide or saline (as above) and after 48 hours were labeled for 6 hours with BrdU and tested for BrdU incorporation into their nucleus.
In the next experiment, several deletion mutants of the T101 peptide were constructed and synthesized. These mutants were tested for their ability to stimulate proliferation in human PBL. The right-hand column indicates the fold increase in proliferation over proliferation in untreated cells.

Substance	solubility in an aqueous solution [1]	Fold Increase in proliferation over proliferation in untreated cells [2]	proliferation stimulating activity, in words [2]
LHLWLSGEPVQSSGTKDMRSKSDSKRVSDKQLISKAVWWTFFLPSTLWERK [T101 peptide]	soluble		
Mut #1: 13 C-terminal amino acids of the T101 peptide: WTFFLPSTLWERK (listed as Homo sapiens)		2.5-3 Fold	very active
Mut #2: amino acids 6 to 28 of the T101 peptide: SGEPVQSSGTKDMRSKSDSKRVS (listed as Homo sapiens)		1.4-1.6 Fold	relatively low activity
Mut #3: 23 C-terminal amino acids of the T101 peptide: DKQLISKAVWWTFFLPSTLWERK (listed as Homo sapiens)		2.2-2.8 Fold	very active
Mut #4: 8 C-terminal amino acids of the T101 peptide: PSTLWERK (Table 1 prints PSTLTWERK) (listed as Homo sapiens)		1.1-1.3 Fold	almost no activity
Mut #5: amino acids 36 to 48 of the T101 peptide: AVWWTFFLPSTLW (listed as Homo sapiens)		2-2.2 Fold	
Mut #6: amino acids 36 to 51 of the T101 peptide in the reverse order: KREWLTSPLFFTWWVA (listed as Homo sapiens)		2-2.4 Fold	
